Data as given in patent US6465614B1, “High-affinity response-selective C-terminal analogs of C5a anaphylatoxin” (priority 1994, dated 2002).
Where two headings read alike, the source gives them in different places. Ends that are not written are not given here.

Assays:
[1] = target: T1, human fetal artery (Homo sapiens, UniProt P21730); experiment: Smooth muscle contraction of human fetal artery (spasmogenic assay); assay type: cell-based; settings: for log potency ratio at the EC50 level compared to C5a / % of C5a potency: fetal artery; for % of C5a potency: from log potency ratio at EC50 level
T1 sequence (P21730 1-350): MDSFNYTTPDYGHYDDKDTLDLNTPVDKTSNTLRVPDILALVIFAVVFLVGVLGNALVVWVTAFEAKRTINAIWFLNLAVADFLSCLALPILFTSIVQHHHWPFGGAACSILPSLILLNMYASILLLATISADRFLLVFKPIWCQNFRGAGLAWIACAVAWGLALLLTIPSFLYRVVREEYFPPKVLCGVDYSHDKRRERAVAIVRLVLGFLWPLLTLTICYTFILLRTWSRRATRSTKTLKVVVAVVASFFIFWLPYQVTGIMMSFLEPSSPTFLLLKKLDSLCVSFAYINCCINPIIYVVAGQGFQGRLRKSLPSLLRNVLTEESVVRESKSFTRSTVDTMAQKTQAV
Procedure: (§1) Tissue strips were suspended in 2 ml organ baths, containing physiological salt solution (Krebs-Ringers solution: 118 mM NaCl, 4.7 mM KCl, 2.5 mM CaCl2, 25 mM NaHCO3, 1.2 mM KH2PO4, 1.2 mM MgSO4, 10 mM Glucose) maintained at 37° C., pH 7.4 and continuously aerated with a 95% CO2 mixture. Each tissue preparation was equilibrated for 1 hr prior to testing with peptides. All drugs were kept on ice during the procedure and isometric tensions were measured using strain-gauge transducers (Grass FT-03) with a computerized chart recording system (MacLab/8). After the contraction to each peptide reached a plateau, histamine (10 μM) was added to obtain the maximum tissue response. Because tachyphylaxis occurs rapidly to single doses of C5a or peptides, cumulative dose-response curves could not be obtained. Instead, the dose-response profile was compiled from multiple strips from each tissue. After exposing each strip to a single concentration of the peptide followed by supramaximal histamine, the response was expressed as a percentage of the maximal contraction to histamine. Full dose-response curves for C5a (human recombinant C5a; Sigma) or individual peptides were performed in each experiment for each tissue and the EC50 values (i.e., concentration of peptide producing 50t of the maximal response to each peptide) obtained by probit analysis. pD2 transforms [−log EC50 (M)] were calculated for each dose-response curve, and means ±SE obtained for each peptide.
Human umbilical cords were obtained from the Mater Misericordiae Hospital, South Brisbane, Queensland within minutes of delivery. The mid-section of the umbilical cord was cut from the placenta, placed in physiological salt solution and stored at 5° C. for up to 24 hrs. […] The fetal arteries were dissected out and cut into longitudinal strips. The intimal surface of the arteries was rubbed with a cotton bud to remove the endothelium. Strips approximately 2 cm×3 mm were suspended in organ baths under 20 mN of resting tension. Arterial strips were tested repeatedly with peptides following a 60 min drug-free period of rest between assays (Taylor et al. (1994), Inflammation, in press).

[2] = test system: guinea-pig platelets; experiment: Guinea-pig platelet aggregation assay; assay type: cell-based; settings: for Platelet Aggreg (threshold concentration producing visible platelet aggregation): guinea-pig platelets, threshold response
Procedure: This assay was performed on platelets obtained from the arterial blood of anesthetized male Hartley guinea pigs according to previously published methods (Ember et al., 1992, supra). Briefly, platelet-rich plasma was prepared and diluted to 3×10^8 platelets/ml in 0.39% sodium citrate solution. Peptide samples were diluted in a stepwise fashion in 1.5-fold dilutions and placed in 96-well microplates. A […] peptide sample, […] of platelet-rich plasma, and one 3 mm glass bead were placed in each well. The plates were shaken horizontally at 100 rpm for 5 min at 37° C. Platelet aggregation was evaluated visually in an inverted microscope at 40× magnification. The greatest dilution of peptide producing visible aggregation was scored as the threshold concentration for activity. Natural C5a and C3a were included as internal standards. At least three independent duplicate determinations were conducted for every peptide.

[3] = target: T2, human neutrophils (PMN) (Homo sapiens, UniProt P21730); assay type: cell-based; settings: human neutrophils; read-out: PMN Polarization EC50
T2 sequence (P21730 1-350): T1 sequence (P21730 1-350)
Procedure: Neutrophil polarization assays were conducted as described by Ember et al., 1992, supra. Human neutrophils (PMN) were prepared according to the procedure described by Dahinden et al. (1979), J. Immunol., 130: 857-862. The assay for measuring the effect of C5a analogs on PMN polarization was described by Haston & Shields (1985), J. Immunol. Methods, 81: 229-237. Briefly, PMN (1×10^6 cells/ml) were suspended in 10 mM 3- (N-morpholino) propane sulfonic acid (Sigma Chemical Co.) containing EBSS. […] After 10 minutes of incubation at room temperature, the cells were washed twice and stored until microscopic examination. Cells deviating from the typical spherical shape were visually scored as polarized. Results are expressed as percent of polarized cells per total cells counted (300 cells counted/sample).

[4] = target: T2, human neutrophils (PMN); assay type: cell-based; settings: human neutrophils, β-glucuronidase release; read-out: PMN Enzyme Release EC50
Procedure: The release of glucuronidase from human neutrophils was determined as described by Schroder et al. (1987), J. Immunol., 139: 3474-3483. Briefly, human neutrophils were pretreated with cytochalasin B (5 μg/ml, 10 min, 37° C.). The cells (10^6) were incubated in the presence of stimulants for 60 minutes at 37° C. in a final volume of 200 μl and then centrifuged. The supernatant was collected and 50 μl were incubated with 50 μl of 0.01 M P-nitrophenyl-β-D-glucuronide (in 0.1 M sodium acetate at pH 4 for 18 h) as triplicate determinations in 96-well microtiter plates (Corning). The reaction was stopped by addition of 100 μl of 0.4 M gly buffer at pH 10. The reaction developed color that was read at 405 nm in a Titertec Multiscan (MCC/340) ELISA reader. The β-glucuronidase released was expressed as the percentage of total enzyme in the cell that could be released by addition of 0.2% Triton X-100 (Pierce).

[5] = test system: serum carboxypeptidases; experiment: Stability toward serum carboxypeptidases (incubation in normal human serum, HPLC); assay type: in vitro ADME; settings: 37° C., 1 h
Procedure: FIG. 10. HPLC profiles of decapeptide analogs. FIG. 10A: HPLC of […] (peptide/Sequence I.D. No. 2); a=purified peptide; b=des-Arg peptide ([…]; Sequence I.D. No. 24); c=des-Arg peptide in saline, no incubation; d=des-Arg peptide in saline with incubation for 1 h at 37° C.; e=des-Arg peptide in normal human serum with incubation for 1 h at 37° C. FIG. 10B: HPLC of […]aR (Sequence I.D. No. 10); a=purified peptide; b=peptide in saline, no incubation; c=peptide in saline with incubation for 1 h at 37° C.; d=peptide in normal human serum with incubation for 1 h at 37° C. Solvent system 1: 70 mM triethylamine/phosphoric acid buffer, pH-2.3. Solvent system 2: 60% acetonitrile in the Solvent 1 buffer. Linear gradient of 30-50% solvent 2 at.1%/min, slope=1 ml/min, absorbance monitored at 214 nm.
Both peptides were incubated in normal human serum at 37° C. for 1 h and thereafter reanalyzed on HPLC.

[6] = test system: guinea-pig lung parenchyma; experiment: Smooth muscle contraction of guinea-pig lung parenchyma; assay type: cell-based; settings: arithmetic mean
Procedure: as §1, with “Each” for “Tissue strips were suspended in 2 ml organ baths, containing physiological salt solution (Krebs-Ringers solution: 118 mM NaCl, 4.7 mM KCl, 2.5 mM CaCl2, 25 mM NaHCO3, 1.2 mM KH2PO4, 1.2 mM MgSO4, 10 mM Glucose) maintained at 37° C., pH 7.4 and continuously aerated with a 95% CO2 mixture. Each”

| Molecule | log potency ratio at the EC50 level compared to C5a [1] | % of C5a potency [1] [%] | potency relative to peptide 2 in spasmogenic activity ([1]; more potent than peptide 2) | Platelet Aggreg (threshold concentration producing visible platelet aggregation) [2] [µM] | potency relative to peptide 2 in platelet aggregation ([2]; more potent than peptide 2) | EC50 [3] [µM] | EC50 [4] [µM] | cleavage of the C-terminal Arg [5] | potency relative to the C-terminal 19-mer of natural sequence ([1]; smooth muscle contraction of human fetal artery (FIG. 1)) | EC50 [6] [µM] |
| --- | --- | --- | --- | --- | --- | --- | --- | --- | --- | --- |
| CSCC[C@H](NC(=O)[C@H](CC(=O)O)NC(=O)[C@H](CCCCN)NC(=O)[C@H](Cc1ccccc1)NC(=O)[C@H](CO)NC(=O)[C@@H](N)Cc1ccc(O)cc1)C(=O)N1CCC[C@H]1C(=O)N[C@@H](CC(C)C)C(=O)N[C@H](C)C(=O)N[C@@H](CCCNC(=N)N)C(=O)O [peptide 10] | 1.42±0.13 | 4 | about 32 fold | 1.3 | about 18 fold | 2.1 | 57.7 | none |  |  |
| YSFKDMQLGR-OH [peptide 2] | 2.78±0.10 | 0.2 |  | 22.9 |  | 4 | 50 |  | about 20 times | 28.4 |
